Measured values as given in patent publication US20200399329A1, “ANTIMICROBIAL PEPTIDES” (priority 2015, published 2020).
In brackets after ≈: the same amount, converted by molar mass. Several values for one entry are separate records, joined by “and”; a condition that tells them apart may be missing. Equal values may be shown once. Where a SMILES comes first, the peptide text is derived from it.

What was measured:
E. coli = E. coli growth monitored via OD600 nm with CecA or OMN6; format: cell-based
Experimental: An assay was conducted in order to compare the antimicrobial activity of the native peptide Cecropin A (CecA) vs. a peptide of the invention OMN6. E. coli bacteria were cultured with CecA or OMN6 in concentration of 12.5 μM for 17-20 hours. The growth of the bacteria was continuously monitored via spectrophotometry at 600 nm. As bacterial growth progresses, OD600 nm values rise, and where the growth is inhibited OD600 nm values remain constant. […] The bacteria completely overcame the inhibitory effect of CecA after 10 hours. The bacteria then continued to thrive and grow to density similar to that of the CTRL group.

E. coli CR BAA-2452 = format: cell-based, Escherichia coli; conditions: OMN6 12.5 μM, FIG. 6D
Experimental: In order to determine the MIC values of the peptides, growth and inhibition of various bacteria were monitored after treatment with the peptides of the invention (Table 6).
E. coli bacteria were cultured with or without OMN6 in increasing concentrations of 0.8-200 μM and with or without Fetal Bovine Serum 10% for 17-20 hours. The growth of the bacteria was continuously monitored via spectrophotometry at 600 nm. As bacterial growth progresses, OD600 nm values rise, and where the growth is inhibited OD600 nm values remain constant.
E. coli NDM1 is a Carbapenem resistant strain of bacteria. The experimental system described above was used to determine the antimicrobial effect of OMN6 on this bacteria compared to the antibiotic drug Imipenem (IPM), a member of the Carbapenem family of antibiotics. The MIC value for IPM on sensitive E. coli is 4 μg/ml, in a MIC above 8 μg/ml the bacteria is considered resistant.
The experimental system and parameters described here were used to determine the MIC values of OMN2, OMN6, OMN7 and OMN11 on various bacteria strains (Table 7 and Table 8).

E. coli ESBL BAA-198 = format: cell-based, Escherichia coli
Experimental: In order to determine the Minimal Bactericidal Concentration (MBC) values of the peptides, colony formation of various bacteria strains was monitored and determined after treatment with the peptides of the invention. Multi-Drug Resistant A. baumannii bacteria were cultured with or without OMN6 in increasing concentrations, as is detailed in FIG. 6 and Example 6. Immediately afterwards, samples of each experimental group were diluted to 1×10^4 to 1×10^6 as necessary, and further, the samples were plated on appropriate medium-agar plates. All the plates were incubated at 37° C. for 24-48 hours. Colonies were counted and CFU/ml in the original sample, prior to plating, were calculated and determined. An example of the plates, after incubation, is presented in FIG. 7 where the plate on the left side of the image is the CTRL sample treated with DDW and in the right side of the image increasing concentrations of OMN6 are presented, as specified therein.
The experimental system and parameters described here were used to determine the MBC values of OMN2, OMN6, OMN7 and OMN11 on various bacteria strains with and without the supplementation of 10% FBS (Table 6 and Table 8).

[1] = system: Escherichia coli (ATCC BAA-198) ESBL; test: Efficacy in mouse model of subcutaneous infection with E. coli; format: in vivo, mice
Experimental: Animals: Healthy adult female mice weighing 16-20 g were used. CD-I outbred (Harlan Breeding Labs, Jerusalem, Israel) were used in all experiments. Animals were caged in groups of 5-10 and were maintained on chow (Ralston Purina) and water ad-libitum.
Bacteria: Escherichia coli (ATCC BAA-198) is an extended spectrum beta-lactamase (ESBL) TEM-26 multi drug resistant strain. Stock cultures were grown in Tryptic Soy Broth (TSB) (Becton, Dickinson and company BD. Maryland, USA) at 37°.
Colonies were counted after incubation for 24 hours on TSB-agar (BD), and results were expressed as colony forming units (CFU)/ml.
Inoculum: All broth cultures were adjusted to 1×10^8 CFU/animal for the challenge dose by adding TSB to a final volume of 50 μl. Bacteria were administered via subcutaneous (SC) injection with tuberculin syringes capped with 29-gauge needles. Recipient animals had the right flank shaved and depilated with hair remover cream (ORNA19, Israel). To inject the inoculum, the needle was inserted SC 1 cm lateral to the thoracic spine and just anterior to the right hind extremity. The needle was tracked anteriorly and SC for 1 cm; then 50 μl of inoculum was injected.
OMN6 peptide at 8 mg/kg in a total volume of 80 μl was injected SC after one hour to the same area. All animals appeared well and fully active within 2-4 hours after this procedure. All animals were monitored for food and water consumption, mortality and any other adverse effects for the entire 5-day duration of the experiment.
Evaluation of Bacterial Burden: A 2 cm^2 area of skin was incised and the inner side, where the abscess was located, was scraped with a sterile scalpel. Scraped tissue was filtered through a 40 μm cell-strainer. Filtered mass was collected, centrifuged at 500 RPM for 2 minutes and a sample from the supernatant was plated on TBS-agar plates for 24 hours at 37°. Colonies were then counted and results are presented as CFU/abscess (see FIG. 10A).
Evaluation of Abscesses: Animals were assessed for the presence and size of abscesses on day 5. The animals were anesthetized (Ketamine 225 mg/kg/Xylazine 6 mg/kg BW IP), the right hind flank area was gently exposed by aseptic technique. Abscesses were recorded and then measured by calipers: the product of the longest diameter (D) and corresponding perpendicular diameter (d) was determined as “abscess size” (D×d) findings presented in mm^2 (see FIG. 10B).

[2] = mice, SC 1×10^8 CFU E. coli ESBL, OMN6 8 mg/kg SC after one hour, day 5

CC[C@H](C)[C@H](NC(=O)CNC(=O)[C@H](CC(=O)O)NC(=O)[C@H](CCCNC(=N)N)NC(=O)[C@@H](NC(=O)[C@H](CC(N)=O)NC(=O)[C@H](CCC(N)=O)NC(=O)CNC(=O)[C@@H](NC(=O)[C@H](CCCCN)NC(=O)[C@H](CCC(=O)O)NC(=O)[C@@H](NC(=O)[C@H](CCCCN)NC(=O)[C@H](CCCCN)NC(=O)[C@H](Cc1ccccc1)NC(=O)[C@H](CC(C)C)NC(=O)[C@H](CCCCN)NC(=O)[C@H](Cc1c[nH]c2ccccc12)NC(=O)[C@H](CCCCN)NC(=O)[C@H](CS)NC(=O)[C@@H](N)CCSC)[C@@H](C)CC)C(C)C)[C@@H](C)CC)C(=O)N[C@H](C(=O)N[C@@H](CCCCN)C(=O)N[C@@H](C)C(=O)NCC(=O)N1CCC[C@H]1C(=O)N[C@@H](C)C(=O)N[C@H](C(=O)N[C@@H](C)C(=O)N[C@H](C(=O)N[C@H](C(=O)NCC(=O)N[C@@H](CCC(N)=O)C(=O)N[C@@H](C)C(=O)N[C@H](C(=O)N[C@@H](CCC(N)=O)C(=O)N[C@H](C(=O)N[C@@H](C)C(=O)N[C@@H](CCCCN)C(=O)N[C@@H](CS)C(N)=O)[C@@H](C)CC)[C@@H](C)O)C(C)C)C(C)C)C(C)C)[C@@H](C)CC [OMN6] (H-MCKWKLFKKIEKVGQNIRDGIIKAGPAVAVVGQATQIAKC-NH2; N-terminus and C-terminus assumed)
Inhibition of E. coli growth (OD600 nm) (E. coli; 12.5 μM, 17-20 hours): completely inhibited bacterial growth | Duration of growth inhibition (E. coli; 12.5 μM, E. coli): more than 17 hours | Colonies after plating (bactericidal nature) (E. coli; E. coli, experiment groups of Example 2 plated): no colonies present | Inhibition of growth of E. coli NDM1 (E. coli CR BAA-2452): completely inhibited bacterial growth | MBC (E. coli ESBL BAA-198): 5 µM (≈ 21.7 µg/mL) | Decrease in abscess size ([1]; OMN6 8 mg/kg SC versus sham-saline): 80% | Decrease in bacteria burden ([1]; OMN6 8 mg/kg SC versus sham-saline, 8 mg/kg): 93.3% and 94% | Average size of the abscesses (D×d) [1, 2]: 7.25 mm^2 | Bacteria burden [1, 2]: 20 CFU/mouse
